Converted amounts (≈) assume the structure as drawn.
What was measured:
Format in all cases: cell-based
S. pyogenes = assay: Antibacterial activity, microdilution in culture broth (NCCLS), strain F; details: Streptococcus pyogenes, G (+) hospital strain, inoculum 5×10^5 UFC/ml
Description: (§1) The antibacterial activity of the new synthesised compounds on the various strains of the bacterial species was implemented using the technique of microdilution in culture broth according to the regulations of the National Committee for Clinical Laboratory Standards (NCCLS), (NCCLS. 1993. Methods for dilution antimicrobial susceptibility tests for bacteria that grow aerobically. Approved standard M7-A3. NCCLS, Vilanova. Pa., and NCCLS. 1993. Methods for dilution antimicrobial susceptibility tests for anaerobic bacteria […]. Approved standard M1-A3. NCCLS, Vilanova. Pa.).
(§2) The inoculum used was 5×10^5 UFC/ml following dilution of the cultures overnight in the exponential phase of bacterial growth.
(§3) The MIC expressed in mg/l was defined as the minimum concentration of antibiotic which inhibited any visible growth.
(§4) The compounds were tested on the strains of G(+) and G(−) bacteria set out in Table 1, in which: […]

E. coli = assay: Antibacterial activity, microdilution in culture broth (NCCLS), strain H; details: Escherichia coli, G (−) hospital strain, inoculum 5×10^5 UFC/ml
Description: as §1, §2, §3
(§5) Linezolid was included as comparative compound.
as §4

H. influenzae = assay: Antibacterial activity, microdilution in culture broth (NCCLS), strain I; details: Haemophilus influenzae, G (−) hospital strain, inoculum 5×10^5 UFC/ml
Description: as §1, §2, §3, §5, §4

[1] = test system: S. pneumoniae resistant to penicillin; assay: Antibacterial activity, microdilution in culture broth (NCCLS), strain C; details: Streptococcus pneumoniae, G (+) hospital strain, inoculum 5×10^5 UFC/ml
Description: as §1, §2, §3, §5, §4

[2] = test system: S. aureus resistant to meticillin; assay: Antibacterial activity, microdilution in culture broth (NCCLS), strain A; details: Staphylococcus aureus, G (+) hospital strain, inoculum 5×10^5 UFC/ml
Description: as §1, §2, §3, §5, §4

S. agalactiae = assay: Antibacterial activity, microdilution in culture broth (NCCLS), strain D; details: Streptococcus agalactiae, G (+) hospital strain, inoculum 5×10^5 UFC/ml
Description: as §1, §2, §3, §5, §4

B. fragilis = assay: Antibacterial activity, microdilution in culture broth (NCCLS), strain G (anaerobic); details: Bacteroides fragilis, anaerobic hospital strain, inoculum 5×10^5 UFC/ml
Description: as §1, §2, §3, §5, §4

M. Catarrahalis = assay: Antibacterial activity, microdilution in culture broth (NCCLS), strain J; details: G (−) hospital strain, inoculum 5×10^5 UFC/ml
Description: as §1, §2, §3, §5, §4

[3] = test system: E. faecalis resistant to vancomycin; assay: Antibacterial activity, microdilution in culture broth (NCCLS), strain B; details: Enterococcus faecalis, G (+) hospital strain, inoculum 5×10^5 UFC/ml
Description: as §1, §2, §3, §5, §4

S. epidermidis = assay: Antibacterial activity, microdilution in culture broth (NCCLS), strain E; details: Staphylococcus epidermidis, G (+) hospital strain, inoculum 5×10^5 UFC/ml
Description: as §1, §2, §3, §5, §4

SMILES	MIC (S. pyogenes) [µg/mL]	MIC (E. coli) [µg/mL]	MIC (H. influenzae) [µg/mL]	MIC [1] [µg/mL]	MIC [2] [µg/mL]	MIC (S. agalactiae) [µg/mL]	MIC (B. fragilis) [µg/mL]	MIC (M. Catarrahalis) [µg/mL]	MIC [3] [µg/mL]	MIC (S. epidermidis) [µg/mL]
CC(=O)NC[C@H]1CN(c2ccc(N3CCN(c4cc5c(cc4F)c(=O)c(C(=O)O)cn5C4CC4)CC3)c(F)c2)C(=O)O1 [EXAMP. 1 + 8, 7-(4-{4-[5-(S)-(acetylamino-methyl)-2-oxo-oxazolidin-3-yl]-2-fluoro-phenyl}-piperazin-1-yl)-1-cyclopropyl-6-fluoro-4-oxo-1,4-dihydro-quinoline-3-carboxylic Acid]	< 0.125	8	0.25	< 0.125	0.25	0.125	0.25	0.25	0.125	0.125
CCn1cc(C(=O)O)c(=O)c2cc(F)c(N3CCN(c4ccc(N5C[C@H](CNC(C)=O)OC5=O)cc4F)CC3)c(F)c21 [EXAMP. 3, 7-(4-{4-[5-(S)-(acetylamino-methyl)-2-oxo-oxazolidin-3-yl]-2-fluoro-phenyl}-piperazin-1-yl)-1-ethyl-6,8-difluoro-4-oxo-1,4-dihydro-quinoline-3-carboxylic Acid]	< 0.125	64 (≈ 109 µM)	4 (≈ 6.81 µM)	< 0.125	< 0.125	< 0.125	0.5 (≈ 0.851 µM)	0.5 (≈ 0.851 µM)	< 0.125	< 0.125
CCn1cc(C(=O)O)c(=O)c2cc(F)c(N3CCN(c4ccc(N5C[C@H](CNC(C)=O)OC5=O)cc4F)CC3)cc21 [EXAMP. 4, 7-(4-{4-[5-(S)-(acetylamino-methyl)-2-oxo-oxazolidin-3-yl]-2-fluoro-phenyl}-piperazin-1-yl)-1-ethyl-6-fluoro-4-oxo-1,4-dihydro-quinoline-3-carboxylic Acid]	< 0.125	16 (≈ 28.1 µM)	2 (≈ 3.51 µM)	< 0.125	0.25 (≈ 0.439 µM)	< 0.125	0.5 (≈ 0.878 µM)	1 (≈ 1.76 µM)	0.25 (≈ 0.439 µM)	< 0.125
CC(=O)NC[C@H]1CN(c2ccc(N3CCN(c4c(F)cc5c(=O)c(C(=O)O)cn6c5c4OCC6C)CC3)cc2)C(=O)O1 (stereo partly drawn) [EXAMP. 5, 9-(4-{4-[5-(S)-(acetylamino-methyl)-2-oxo-oxazolidin-3-yl]-phenyl}-piperazin-1-yl)-8-fluoro-3-methyl-6-oxo-2,3-dihydro-6H-1-oxa-3a-aza-phenalen-5-carboxylic Acid]	0.5 (≈ 0.863 µM)	4 (≈ 6.9 µM)	1 (≈ 1.73 µM)	0.5 (≈ 0.863 µM)	0.5 (≈ 0.863 µM)	0.5 (≈ 0.863 µM)	2 (≈ 3.45 µM)	1 (≈ 1.73 µM)	0.5 (≈ 0.863 µM)	0.25 (≈ 0.431 µM)
CC(=O)NC[C@H]1CN(c2ccc(N(C)C3CCN(c4c(F)cc5c(=O)c(C(=O)O)cn6c5c4OCC6C)C3)c(F)c2)C(=O)O1 (stereo partly drawn) [EXAMP. 6, 9-[3-({4-[5-(S)-(acetylamino-methyl)-2-oxo-oxazolidin-3-yl]-2-fluoro-phenyl}-methyl-amino)-pyrrolidin-1-yl]-8-fluoro-3-methyl-6-oxo-2,3-dihydro-6H-1-oxa-3a-aza-phenalen-5-carboxylic Acid]	1 (≈ 1.64 µM)	2 (≈ 3.27 µM)	< 0.125	1 (≈ 1.64 µM)	2 (≈ 3.27 µM)	0.5 (≈ 0.818 µM)	16 (≈ 26.2 µM)	0.25 (≈ 0.409 µM)	1 (≈ 1.64 µM)	0.5 (≈ 0.818 µM)
CC(=O)NC[C@H]1CN(c2ccc(N3CCN(c4c(F)cc5c(=O)c(C(=O)O)cn6c5c4OCC6C)CC3)c(F)c2)C(=O)O1 (stereo partly drawn) [EXAMP. 7, 9-(4-{4-[5-(S)-(acetylamino-methyl)-2-oxo-oxazolidin-3-yl]-2-fluoro-phenyl}-piperazin-1-yl)-8-fluoro-3-methyl-6-oxo-2,3-dihydro-6H-1-oxa-3a-aza-phenalene-5-carboxylic Acid]	0.25 (≈ 0.418 µM)	8 (≈ 13.4 µM)	4 (≈ 6.69 µM)	0.25 (≈ 0.418 µM)	0.25 (≈ 0.418 µM)	0.5 (≈ 0.837 µM)	2 (≈ 3.35 µM)	1 (≈ 1.67 µM)	0.5 (≈ 0.837 µM)	0.25 (≈ 0.418 µM)
CNC(=S)NC[C@H]1CN(c2ccc(N3CCN(c4cc5c(cc4F)c(=O)c(C(=O)O)cn5C4CC4)CC3)c(F)c2)C(=O)O1 [EXAMP. 9, 1-cyclopropyl-6-fluoro-7-[4-(2-fluoro-4-{5-(S)-[(3-methyl-thioureido)-methyl]-2-oxo-oxazolidin-3-yl}-phenyl)-piperazin-1-yl]-4-oxo-1,4-dihydro-quinoline-3-carboxylic Acid]	< 0.125	> 64	1 (≈ 1.63 µM)	< 0.125	< 0.125	< 0.125	0.5 (≈ 0.816 µM)	0.25 (≈ 0.408 µM)	< 0.125	< 0.125
CCNC(=O)NC[C@H]1CN(c2ccc(N3CCN(c4cc5c(cc4F)c(=O)c(C(=O)O)cn5C4CC4)CC3)c(F)c2)C(=O)O1 [EXAMP. 10, 1-cyclopropyl-7-[4-(4-{5-(S)-[(3-ethyl-ureido)-methyl]-2-oxo-oxazolidin-3-yl}-2-fluoro-phenyl)-piperazin-1-yl]-6-fluoro-4-oxo-1,4-dihydro-quinoline-3-carboxylic Acid]	1 (≈ 1.64 µM)	64 (≈ 105 µM)	4 (≈ 6.55 µM)	1 (≈ 1.64 µM)	1 (≈ 1.64 µM)	1 (≈ 1.64 µM)	4 (≈ 6.55 µM)	2 (≈ 3.28 µM)	2 (≈ 3.28 µM)	0.25 (≈ 0.409 µM)
CCOC(=O)NC[C@H]1CN(c2ccc(N3CCN(c4cc5c(cc4F)c(=O)c(C(=O)O)cn5C4CC4)CC3)c(F)c2)C(=O)O1 [EXAMP. 11, 1-cyclopropyl-7-(4-{4-[5-(S)-(ethoxycarbonylamino-methyl)-2-oxo-oxazolidin-3-yl]-2-fluoro-phenyl}-piperazin-1-yl)-6-fluoro-4-oxo-1,4-dihydro-quinoline-3-carboxylic Acid]	0.5 (≈ 0.818 µM)	32 (≈ 52.3 µM)	4 (≈ 6.54 µM)	0.5 (≈ 0.818 µM)	0.5 (≈ 0.818 µM)	1 (≈ 1.64 µM)	1 (≈ 1.64 µM)	1 (≈ 1.64 µM)	0.5 (≈ 0.818 µM)	0.125 (≈ 0.204 µM)
CCOC(=O)c1cn(C2CC2)c2nc(N3CCN(c4ccc(N5C[C@H](CNC(C)=O)OC5=O)cc4F)CC3)c(F)cc2c1=O [EXAMP. 16, 7-(4-{4-[5-(S)-(acetylamino-methyl)-2-oxo-oxazolidin-3-yl]-2-fluoro-phenyl}-piperazin-1-yl)-1-cyclopropyl-6-fluoro-4-oxo-1,4-dihydro-[1,8]Naphthyridine-3-carboxylic Acid Ethyl Ester]	1 (≈ 1.64 µM)	> 64	> 64	1 (≈ 1.64 µM)	4 (≈ 6.55 µM)	1 (≈ 1.64 µM)	8 (≈ 13.1 µM)	8 (≈ 13.1 µM)	2 (≈ 3.28 µM)	2 (≈ 3.28 µM)
CC(=O)NC[C@H]1CN(c2ccc(N3CCOCC3)c(F)c2)C(=O)O1 [Linezolid, reference compound]	–	> 64	16 (≈ 47.4 µM)	1 (≈ 2.96 µM)	2 (≈ 5.93 µM)	2 (≈ 5.93 µM)	2 (≈ 5.93 µM)	16 (≈ 47.4 µM)	2 (≈ 5.93 µM)	1 (≈ 2.96 µM)

Reference: patent US20040147545A1, “Derivatives of oxazolidinones as antibacterial agents” (priority 2001, published 2004)
